How the values were obtained:
Assay type in all cases: physicochemical
[1] = Stability during laundering of dyed fabrics (colour fastness, ΔE); conditions: washed at 30° c.
Method: (§1) In order to assess the stability and colour fastness of violacein and violacein derivatives dyed onto fabrics, dyed fabrics were subjected to a number of conditions. Fabrics were dyed according to Example 18 and colour coordinates and colour change before and after exposure to a given condition were determined as described in Example 18. To measure temperature stability, fabrics were incubated in an oven set to 80° c. for 4 h. To measure stability under acid and alkaline conditions, fabrics were fully submerged in water solutions set to pH 8 with NaOH and pH 5 with HCl and incubated at room temperature for 30 minutes. Fabrics were then incubated at 37° c. for 4 h. To measure stability during laundering, fabrics were washed at 30° c. under the “mix” setting of a Siemens IQ300 washing machine, then dried in a Siemens IQ300 dryer until dry. To measure artificial light stability, fabrics were placed under an LED lamp at room temperature for 16 h. To measure UV light stability, fabrics were placed under a UV lamp at room temperature for 1 h.

[2] = Artificial light stability of dyed fabrics (colour fastness, ΔE); conditions: for ΔE: before vs after LED lamp, room temperature, 16 h
Method: as §1

[3] = Temperature stability of dyed fabrics (colour fastness, ΔE); conditions: oven 80° c. for 4 h; for ΔE: before and after the stability test
Method: as §1

[4] = Acrylic, after test (LED lamp, room temperature, 16 h)
[5] = Bleached cotton, after test (LED lamp, room temperature, 16 h)
[6] = Diacetate, after test (LED lamp, room temperature, 16 h)
[7] = Nylon 6,6, after test (LED lamp, room temperature, 16 h)
[8] = Polyester, after test (LED lamp, room temperature, 16 h)
[9] = Wool, after test (LED lamp, room temperature, 16 h)

O=C1N=C(c2c[nH]c3ccc(O)cc23)C=C1c1c[nH]c2ccccc12 [proviolacein]
L ([1]; Acrylic, After test): 67.87 | a ([1]; Acrylic, After test): −1.12 | b ([1]; Acrylic, After test): 2.23 | L ([1]; Acrylic, Before test): 58.81 | a ([1]; Acrylic, Before test): 0.01 | b ([1]; Acrylic, Before test): 1.72 | ΔE ([1]; Acrylic, before and after the stability test): 9.14 | L ([1]; Bleached cotton, After test): 73 | a ([1]; Bleached cotton, After test): 0.55 | b ([1]; Bleached cotton, After test): 1.68 | L ([1]; Bleached cotton, Before test): 65.1 | a ([1]; Bleached cotton, Before test): 1.34 | b ([1]; Bleached cotton, Before test): 3.23 | ΔE ([1]; Bleached cotton, before and after the stability test): 8.09 | L ([1]; Diacetate, After test): 68.23 | a ([1]; Diacetate, After test): 3.76 | b ([1]; Diacetate, After test): 5.07 | L ([1]; Diacetate, Before test): 62.86 | a ([1]; Diacetate, Before test): 4.96 | b ([1]; Diacetate, Before test): 5.09 | ΔE ([1]; Diacetate, before and after the stability test): 5.50 | L ([1]; Nylon 6,6, After test): 56.92 | a ([1]; Nylon 6,6, After test): −1.51 | b ([1]; Nylon 6,6, After test): −3.83 | L ([1]; Nylon 6,6, Before test): 50.65 | a ([1]; Nylon 6,6, Before test): −1.57 | b ([1]; Nylon 6,6, Before test): −2.84 | ΔE ([1]; Nylon 6,6, before and after the stability test): 6.35 | L ([1]; Polyester, After test): 72.82 | a ([1]; Polyester, After test): −0.46 | b ([1]; Polyester, After test): 0.54 | L ([1]; Polyester, Before test): 65.21 | a ([1]; Polyester, Before test): −1.18 | b ([1]; Polyester, Before test): 1.47 | ΔE ([1]; Polyester, before and after the stability test): 7.70 | L ([1]; Wool, After test): 72.54 | a ([1]; Wool, After test): −1.14 | b ([1]; Wool, After test): 5.37 | L ([1]; Wool, Before test): 64.87 | a ([1]; Wool, Before test): 0.09 | b ([1]; Wool, Before test): 5 | ΔE ([1]; Wool, before and after the stability test): 7.78 | L [2, 4]: 58.47 | a [2, 4]: −0.05 | b [2, 4]: 2.76 | L ([2]; Acrylic, before test): 56.17 | a ([2]; Acrylic, before test): −0.68 | b ([2]; Acrylic, before test): 3.21 | ΔE ([2]; Acrylic): 2.43 | L [2, 5]: 62.69 | a [2, 5]: 3.04 | b [2, 5]: 3.55 | L ([2]; Bleached cotton, before test): 58.83 | a ([2]; Bleached cotton, before test): −0.52 | b ([2]; Bleached cotton, before test): 4.04 | ΔE ([2]; Bleached cotton): 5.27 | L [2, 6]: 63.43 | a [2, 6]: 4.56 | b [2, 6]: 7.02 | L ([2]; Diacetate, before test): 56.45 | a ([2]; Diacetate, before test): 3.46 | b ([2]; Diacetate, before test): 5.75 | ΔE ([2]; Diacetate): 7.18 | L [2, 7]: 51.07 | a [2, 7]: −0.68 | b [2, 7]: −2.49 | L ([2]; Nylon 6,6, before test): 47.03 | a ([2]; Nylon 6,6, before test): −1.98 | b ([2]; Nylon 6,6, before test): −2.52 | ΔE ([2]; Nylon 6,6): 4.24 | L [2, 8]: 65.01 | a [2, 8]: −0.35 | b [2, 8]: 1.74 | L ([2]; Polyester, before test): 59.49 | a ([2]; Polyester, before test): −1.38 | b ([2]; Polyester, before test): 2.13 | ΔE ([2]; Polyester): 5.63 | L [2, 9]: 67.51 | a [2, 9]: −0.15 | b [2, 9]: 6.46 | L ([2]; Wool, before test): 65.25 | a ([2]; Wool, before test): −0.55 | b ([2]; Wool, before test): 5.71 | ΔE ([2]; Wool): 2.41 | L ([3]; Acrylic, After test): 58.24 | a ([3]; Acrylic, After test): −0.6 | b ([3]; Acrylic, After test): 1.57 | L ([3]; Acrylic, Before test): 56.45 | a ([3]; Acrylic, Before test): −2.01 | b ([3]; Acrylic, Before test): 2.1 | ΔE ([3]; Acrylic): 2.34 | L ([3]; Bleached cotton, After test): 61.95 | a ([3]; Bleached cotton, After test): 1.2 | b ([3]; Bleached cotton, After test): 2.46 | L ([3]; Bleached cotton, Before test): 62.46 | a ([3]; Bleached cotton, Before test): 0.6 | b ([3]; Bleached cotton, Before test): 2.51 | ΔE ([3]; Bleached cotton): 0.79 | L ([3]; Diacetate, After test): 59.98 | a ([3]; Diacetate, After test): 5.39 | b ([3]; Diacetate, After test): 6.04 | L ([3]; Diacetate, Before test): 61.94 | a ([3]; Diacetate, Before test): 4.17 | b ([3]; Diacetate, Before test): 5.25 | ΔE ([3]; Diacetate): 2.44 | L ([3]; Nylon 6,6, After test): 49.91 | a ([3]; Nylon 6,6, After test): −1.59 | b ([3]; Nylon 6,6, After test): −4 | L ([3]; Nylon 6,6, Before test): 50.83 | a ([3]; Nylon 6,6, Before test): −2.09 | b ([3]; Nylon 6,6, Before test): −3.92 | ΔE ([3]; Nylon 6,6): 1.05 | L ([3]; Polyester, After test): 62.77 | a ([3]; Polyester, After test): −0.52 | b ([3]; Polyester, After test): 1.37 | L ([3]; Polyester, Before test): 64.1 | a ([3]; Polyester, Before test): −1.81 | b ([3]; Polyester, Before test): 1.31 | ΔE ([3]; Polyester): 1.85 | L ([3]; Wool, After test): 64.23 | a ([3]; Wool, After test): 0.18 | b ([3]; Wool, After test): 4.96 | L ([3]; Wool, Before test): 65.67 | a ([3]; Wool, Before test): −0.22 | b ([3]; Wool, Before test): 4.25 | ΔE ([3]; Wool): 1.65

Source: US20260092179A1, “GENETICALLY MODIFIED HOST CELLS PRODUCING VIOLACEIN, ANALOGUES, AND DERIVATIVES THEREOF” (OCTARINE BIO APS, priority 2022, published 2026)
